From patent US10844077B2, “Thiazolyl-containing compounds for treating proliferative diseases” (Dana-Farber Cancer Institute, Inc., priority 2014, dated 2020)
Where “and” joins values, the source holds several entries; their conditions need not be identical. Equal values may be shown once.

Experiments:
[1] = target: kinases in BCWM.1 cells (Homo sapiens, UniProt Q96S38); type: cell-based; conditions: RSKL1; ATP; 1 μM, 90 min; GF
Procedure: (§1) The cells were harvested and lysed. […] Bound kinases were identified and quantitated by ACTIVX as described in Patricelli et al., Biochemistry, 2007, 46(2): 350-358. The compounds were tested in duplicates against duplicate or quadruplicate control samples.

[2] = target: kinases in BCWM.1 cells (Homo sapiens, UniProt P23443); type: cell-based; conditions: p70S6K; Lys2; 1 μM, 90 min; GF
Procedure: as §1

[3] = target: kinases in BCWM.1 cells (Homo sapiens, UniProt Q96BR1); type: cell-based; conditions: SGK3; Lys1; 1 μM, 90 min; GF
Procedure: as §1

[4] = target: kinases in BCWM.1 cells (Homo sapiens, UniProt Q8NEB9); type: cell-based; conditions: PIK3C3; ATP; 1 μM, 90 min; GF
Procedure: as §1

[5] = target: kinases in BCWM.1 cells (Homo sapiens, UniProt Q9C0K7); test: KINATIV assay of compounds I-3 and I-9, lysate directly labeled with ATP-biotin probe (no GF); type: cell-based; conditions: STLK6; Lys1; 1 μM, 90 min; no GF
Procedure: as §1

[6] = target: kinases in BCWM.1 cells (Homo sapiens, UniProt P17612); test: as above; type: cell-based; conditions: PKACa; Lys2; 1 μM, 90 min; no GF
Procedure: as §1

[7] = target: kinases in BCWM.1 cells (Homo sapiens, UniProt Q8TCG2); test: as above; type: cell-based; conditions: PI4K2B; ATP; 1 μM, 90 min; no GF
Procedure: as §1

[8] = target: kinases in BCWM.1 cells (Homo sapiens, UniProt O00506); test: as above; type: cell-based; conditions: YSK1; Lys1; 1 μM, 90 min; no GF
Procedure: as §1

[9] = target: kinases in BCWM.1 cells (Homo sapiens, UniProt Q02156); test: as above; type: cell-based; conditions: PKCe; Lys2; 1 μM, 90 min; no GF
Procedure: as §1

[10] = system: TMD-8; test: CellTiter-Glo Luminescent cell viability assay; type: cell-based; conditions: cell survival, 72 hours
Procedure: (§2) The inhibitory activities of exemplary compounds described herein against select protein kinases and cells were determined. Cell survival following treatment of exemplary compounds described herein was assessed by CellTiter-Glo® Luminescent cell viability assay (Promega). The cells were seeded into 384 well plates with the EL406 Combination Washer Dispenser (BioTek Instruments, Inc.), and a series diluted exemplary compounds (20˜0.0006 μM) were injected into the culture media with the JANUS Automated Workstation (PerkinElmer Inc.). The cells were treated for 72 hours at 37° C. with 5% CO2. Luminescent measurement is performed using the 2104 Envision® Multilabel Reader (PerkinElmer Inc.). EC50 values were calculated with […] PRISM software.

[11] = system: HBL-1; test: CellTiter-Glo Luminescent cell viability assay; type: cell-based; conditions: cell survival, 72 hours
Procedure: as §2

[12] = system: Ramos; test: CellTiter-Glo Luminescent cell viability assay; type: cell-based; conditions: cell survival, 72 hours
Procedure: as §2

[13] = system: MWCL-1; test: CellTiter-Glo Luminescent cell viability assay; type: cell-based; conditions: cell survival, 72 hours
Procedure: as §2

[14] = system: OCI-Ly19; test: CellTiter-Glo Luminescent cell viability assay; type: cell-based; conditions: cell survival, 72 hours
Procedure: as §2

[15] = system: BCWM.1; test: CellTiter-Glo Luminescent cell viability assay; type: cell-based; conditions: cell survival, 72 hours
Procedure: as §2

[16] = target: PFTAIRE1 (Homo sapiens (Human), UniProt O94921)
Procedure: The cells were harvested and lysed. The lysates were directly labeled with an ATP-biotin probe. Bound kinases were identified and quantitated by ACTIVX as described in Patricelli et al., Biochemistry, 2007, 46(2): 350-358. The compounds were tested in duplicates against duplicate or quadruplicate control samples.

[17] = target: kinases in BCWM.1 cells (Homo sapiens, UniProt Q04759); test: KINATIV assay of compounds I-3 and I-9, lysate directly labeled with ATP-biotin probe (no GF); type: cell-based; conditions: PKCt; ATP Loop; 1 μM, 90 min; no GF
Procedure: as §1

[18] = target: kinases in BCWM.1 cells (Homo sapiens, UniProt P11802); test: as above; type: cell-based; conditions: CDK4; Lys2; 1 μM; no GF
Procedure: as §1

[19] = target: kinases in BCWM.1 cells (Homo sapiens, UniProt Q13164); test: as above; type: cell-based; conditions: Erk5; Lys2; 1 μM; no GF
Procedure: as §1

[20] = target: kinases in BCWM.1 cells (Homo sapiens, UniProt P09769); test: as above; type: cell-based; conditions: FGR; Activation Loop; 1 μM; no GF
Procedure: as §1

[21] = target: kinases in BCWM.1 cells (Homo sapiens, UniProt O14936); test: as above; type: cell-based; conditions: CASK; Lys1; 1 μM; no GF
Procedure: as §1

[22] = target: kinases in BCWM.1 cells (Homo sapiens, UniProt Q12851); test: as above; type: cell-based; conditions: GCK; Lys2; 1 μM; no GF
Procedure: as §1

[23] = target: kinases in BCWM.1 cells (Homo sapiens, UniProt P28482); test: as above; type: cell-based; conditions: Erk2; Lys2; 1 μM; no GF
Procedure: as §1

[24] = target: kinases in BCWM.1 cells (Homo sapiens, UniProt Q16659); test: as above; type: cell-based; conditions: Erk3; Lys2; 1 μM; no GF
Procedure: as §1

[25] = target: kinases in BCWM.1 cells (Homo sapiens, UniProt P07948); test: as above; type: cell-based; conditions: LYN; Lys1; 1 μM; no GF
Procedure: as §1

[26] = target: kinases in BCWM.1 cells (Homo sapiens, UniProt Q16566); test: as above; type: cell-based; conditions: CaMK4; Lys2; 1 μM; no GF
Procedure: as §1

[27] = target: kinases in BCWM.1 cells (Homo sapiens, UniProt P52333); test: as above; type: cell-based; conditions: JAK3 domain2; Activation Loop; 1 μM; no GF
Procedure: as §1

[28] = target: kinases in BCWM.1 cells (Homo sapiens, UniProt P45985); test: as above; type: cell-based; conditions: MAP2K4; Lys2; 1 μM; no GF
Procedure: as §1

kinases in BCWM.1 cells (Homo sapiens, UniProt P09769), sequence (P09769 2-529 limits assumed): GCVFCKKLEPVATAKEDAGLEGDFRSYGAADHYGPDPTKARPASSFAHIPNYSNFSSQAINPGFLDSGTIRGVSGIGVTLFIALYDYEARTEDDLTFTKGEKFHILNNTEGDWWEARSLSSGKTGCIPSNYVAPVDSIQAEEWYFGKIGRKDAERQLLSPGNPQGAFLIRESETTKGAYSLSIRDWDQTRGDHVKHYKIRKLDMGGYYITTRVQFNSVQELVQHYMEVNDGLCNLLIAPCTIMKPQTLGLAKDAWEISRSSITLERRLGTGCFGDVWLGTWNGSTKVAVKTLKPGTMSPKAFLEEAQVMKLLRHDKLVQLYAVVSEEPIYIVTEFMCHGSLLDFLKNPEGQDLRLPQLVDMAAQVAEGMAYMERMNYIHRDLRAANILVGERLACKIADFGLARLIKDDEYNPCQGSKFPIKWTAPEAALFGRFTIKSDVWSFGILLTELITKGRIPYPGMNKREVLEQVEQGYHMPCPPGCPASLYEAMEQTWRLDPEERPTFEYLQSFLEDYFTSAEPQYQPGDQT
kinases in BCWM.1 cells (Homo sapiens, UniProt P11802), sequence (P11802 2-303 limits assumed): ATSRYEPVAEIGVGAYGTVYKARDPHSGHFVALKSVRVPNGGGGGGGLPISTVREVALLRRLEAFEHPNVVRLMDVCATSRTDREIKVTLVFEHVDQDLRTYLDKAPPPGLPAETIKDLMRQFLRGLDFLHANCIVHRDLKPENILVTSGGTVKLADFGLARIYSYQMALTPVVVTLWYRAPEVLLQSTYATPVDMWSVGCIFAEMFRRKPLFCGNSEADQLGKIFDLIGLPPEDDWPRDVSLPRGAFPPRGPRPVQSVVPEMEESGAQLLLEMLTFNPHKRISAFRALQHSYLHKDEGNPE
kinases in BCWM.1 cells (Homo sapiens, UniProt P28482), sequence (P28482 2-360 limits assumed): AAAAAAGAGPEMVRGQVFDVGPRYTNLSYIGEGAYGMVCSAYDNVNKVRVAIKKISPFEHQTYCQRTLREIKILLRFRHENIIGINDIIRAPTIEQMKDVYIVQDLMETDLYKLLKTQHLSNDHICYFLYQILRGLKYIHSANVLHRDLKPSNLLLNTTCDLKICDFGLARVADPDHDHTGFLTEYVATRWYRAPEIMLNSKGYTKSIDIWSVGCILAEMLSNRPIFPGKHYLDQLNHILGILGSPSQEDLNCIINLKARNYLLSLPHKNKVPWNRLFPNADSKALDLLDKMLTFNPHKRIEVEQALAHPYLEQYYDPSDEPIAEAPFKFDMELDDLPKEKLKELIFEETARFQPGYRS
kinases in BCWM.1 cells (Homo sapiens, UniProt Q13164), sequence (Q13164 2-816 limits assumed): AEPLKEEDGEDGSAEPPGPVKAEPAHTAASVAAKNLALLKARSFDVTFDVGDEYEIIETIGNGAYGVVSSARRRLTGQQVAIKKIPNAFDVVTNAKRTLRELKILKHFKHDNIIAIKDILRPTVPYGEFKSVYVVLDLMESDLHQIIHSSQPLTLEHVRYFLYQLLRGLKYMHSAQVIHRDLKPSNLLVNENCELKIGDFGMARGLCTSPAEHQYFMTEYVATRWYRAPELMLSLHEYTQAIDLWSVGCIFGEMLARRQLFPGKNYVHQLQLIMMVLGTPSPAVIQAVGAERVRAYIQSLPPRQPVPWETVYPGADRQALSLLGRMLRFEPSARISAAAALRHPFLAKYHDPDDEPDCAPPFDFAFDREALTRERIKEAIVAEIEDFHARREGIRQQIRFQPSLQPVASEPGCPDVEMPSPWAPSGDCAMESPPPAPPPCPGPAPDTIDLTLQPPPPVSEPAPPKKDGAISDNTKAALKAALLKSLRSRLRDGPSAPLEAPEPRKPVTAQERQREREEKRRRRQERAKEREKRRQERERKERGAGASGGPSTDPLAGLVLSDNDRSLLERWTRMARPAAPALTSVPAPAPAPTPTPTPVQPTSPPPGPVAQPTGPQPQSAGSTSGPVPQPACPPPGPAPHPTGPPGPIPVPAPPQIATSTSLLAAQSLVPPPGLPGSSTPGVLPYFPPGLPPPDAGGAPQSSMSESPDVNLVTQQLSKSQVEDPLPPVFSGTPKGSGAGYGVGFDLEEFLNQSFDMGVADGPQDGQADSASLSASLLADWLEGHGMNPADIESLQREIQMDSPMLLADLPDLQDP
kinases in BCWM.1 cells (Homo sapiens, UniProt P45985), sequence (P45985 2-399 limits assumed): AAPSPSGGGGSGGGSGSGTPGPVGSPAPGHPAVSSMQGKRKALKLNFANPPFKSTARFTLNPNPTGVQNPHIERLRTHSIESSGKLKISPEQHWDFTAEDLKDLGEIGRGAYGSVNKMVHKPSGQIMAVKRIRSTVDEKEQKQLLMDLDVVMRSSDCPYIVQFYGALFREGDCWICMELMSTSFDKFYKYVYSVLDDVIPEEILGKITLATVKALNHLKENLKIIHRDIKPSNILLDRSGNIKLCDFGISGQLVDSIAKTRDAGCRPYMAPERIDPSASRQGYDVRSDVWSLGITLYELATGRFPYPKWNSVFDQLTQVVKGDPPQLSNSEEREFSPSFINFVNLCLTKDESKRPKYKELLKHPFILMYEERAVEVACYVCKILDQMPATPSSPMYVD
PFTAIRE1, sequence (O94921 whole entry, looked up): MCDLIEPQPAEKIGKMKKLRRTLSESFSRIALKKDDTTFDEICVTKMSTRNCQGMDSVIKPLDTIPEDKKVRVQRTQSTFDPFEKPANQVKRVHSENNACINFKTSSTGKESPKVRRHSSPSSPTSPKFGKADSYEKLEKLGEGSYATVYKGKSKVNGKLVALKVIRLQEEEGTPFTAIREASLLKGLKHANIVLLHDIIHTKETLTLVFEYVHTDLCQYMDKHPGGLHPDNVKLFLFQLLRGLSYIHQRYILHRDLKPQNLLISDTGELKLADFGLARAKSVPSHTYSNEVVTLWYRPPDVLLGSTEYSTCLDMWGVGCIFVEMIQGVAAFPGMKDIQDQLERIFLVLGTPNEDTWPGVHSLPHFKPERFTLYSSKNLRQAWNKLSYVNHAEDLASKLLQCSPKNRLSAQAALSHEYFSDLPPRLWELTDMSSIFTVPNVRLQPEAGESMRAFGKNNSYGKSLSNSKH
kinases in BCWM.1 cells (Homo sapiens, UniProt P07948), sequence (P07948 2-512 limits assumed): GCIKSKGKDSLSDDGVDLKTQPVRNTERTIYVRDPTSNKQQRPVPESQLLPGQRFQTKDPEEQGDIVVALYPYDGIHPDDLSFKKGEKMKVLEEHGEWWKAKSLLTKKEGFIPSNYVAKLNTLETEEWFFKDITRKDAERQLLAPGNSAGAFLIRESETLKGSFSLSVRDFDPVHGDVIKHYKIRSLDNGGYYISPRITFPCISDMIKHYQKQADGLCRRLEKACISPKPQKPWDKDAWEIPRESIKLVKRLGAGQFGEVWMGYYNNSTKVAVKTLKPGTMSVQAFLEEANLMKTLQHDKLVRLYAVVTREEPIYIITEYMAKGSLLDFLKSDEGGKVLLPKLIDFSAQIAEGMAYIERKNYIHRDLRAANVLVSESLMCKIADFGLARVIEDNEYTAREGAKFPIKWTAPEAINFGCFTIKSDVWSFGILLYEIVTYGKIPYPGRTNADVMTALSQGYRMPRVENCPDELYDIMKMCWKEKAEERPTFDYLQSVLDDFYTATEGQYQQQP

Structure (SMILES): CCC(=O)N1CC[C@H](Nc2nccc(Nc3ncc(C(=O)Nc4c(C)cccc4C)s3)n2)C1 [Example I-9]
- % change of MS signal compared to control sample [1]: 1.8%
- % change of MS signal compared to control sample [2]: −8.6%
- % change of MS signal compared to control sample [3]: −1.1%
- % change of MS signal compared to control sample [4]: −9.4%
- % change of MS signal compared to control sample [5]: 7.2%
- % change of MS signal compared to control sample [6]: −9.8%
- % change of MS signal compared to control sample [7]: 2.6%
- % change of MS signal compared to control sample [8]: −11.5%
- % change of MS signal compared to control sample [9]: −38.2%

Structure (SMILES): C=CC(=O)N1CCC(Cn2ccc(Nc3ncc(C(=O)Nc4c(C)cccc4Cl)s3)n2)C1 (centres unmarked) [II-1]
- EC50 [10]: 573 nM
- EC50 [11]: 735 nM
- EC50 [12]: > 20000 nM
- EC50 [13]: 121 nM
- EC50 [14]: 7880 nM
- EC50 [15]: 84 nM

Structure (SMILES): C=CC(=O)N1CC[C@@H](Nc2nccc(Nc3ncc(C(=O)Nc4c(C)cccc4C)s3)n2)C1 [Example I-4]
- % change of MS signal compared to control sample [16]: 15.3% and 6.3%

Structure (SMILES): C=CC(=O)N1CC[C@H](Nc2nccc(Nc3ncc(C(=O)Nc4c(C)cccc4C)s3)n2)C1 [Example I-3]
- % change of MS signal compared to control sample [1]: −25.8%
- % change of MS signal compared to control sample [2]: −51.5%
- % change of MS signal compared to control sample [3]: −18.5%
- % change of MS signal compared to control sample [4]: −0.8%
- % change of MS signal compared to control sample [17]: −5.2%
- % change of MS signal compared to control sample [18]: 10.3% and 4.8%
- % change of MS signal compared to control sample [19]: 3% and 8.3%
- % change of MS signal compared to control sample [20]: 95.7% and 95.4%
- % change of MS signal compared to control sample [21]: −1% and 0.5%
- % change of MS signal compared to control sample [22]: 18.1% and 17.8%
- % change of MS signal compared to control sample [23]: −1.8% and 1.1%
- % change of MS signal compared to control sample [24]: 23.2% and 23.8%
- % change of MS signal compared to control sample [25]: >98%
- % change of MS signal compared to control sample [26]: 6.8% and −0.1%
- % change of MS signal compared to control sample [27]: −1.5% and −0.6%
- % change of MS signal compared to control sample [28]: −3.9% and 1.1%
